Results from patent US9206396B2, “Methods and devices for quantitative viral assays” (Wisconsin Alumni Research Foundation, priority 2005, dated 2015).
In brackets after ≈: the same amount, converted by molar mass. Entries after “also recorded” stand apart in the source; their conditions may differ. Like-named read-outs stand apart in the source and are kept apart here.

Legend:
Test in all cases: microbe, parasite or virus in culture
Format in all cases: cell-based, recombinant VSV in BHK cells
rVSV-GFP [1] = tested on: rVSV-GFP
rVSV-GFP [2] = tested on: rVSV-GFP; remark: listed apart in the source
rVSV-GFP [3] = tested on: rVSV-GFP; remark: listed apart in the source

O=c1[nH]cc(F)c(=O)[nH]1 [5-fluorouracil]
Infection at drug concentration of 16 μg/ml, yield assay (rVSV-GFP [1]): retained detectable infection
IC50 (rVSV-GFP [1]; Vesicular stomatitis virus, read-out: IC50, drug concentration required to reduce the virus yield by 50%): 4 µg/mL (≈ 30.8 µM)
Detection of comets at 16 μg/ml (rVSV-GFP [2]): comets could no longer be detected
Inhibition of VSV comet formation (rVSV-GFP [2]): Dose-dependent inhibition; also recorded: inhibited the formation of comets in a dose-dependent manner
IC50 (rVSV-GFP [2]; Vesicular stomatitis virus, read-out: 50 percent inhibition concentration (IC50), virus infectivity, comet assay): 1 µg/mL (≈ 7.69 µM)
Infection at drug concentration of 16 μg/ml, plaque assay (rVSV-GFP [3]): retained detectable infection
IC50 (rVSV-GFP [3]; Vesicular stomatitis virus, read-out: IC50, drug concentration required to reduce the number of plaques by 50%): 16 µg/mL (≈ 123 µM)
